# Reference: ChEMBL document CHEMBL4152231, “Identification of novel 2-benzyl-1-indanone analogs as interleukin-5 inhibitors” (Eur J Med Chem, 2018)
# Target: T1, Interleukin-5 (Mus musculus) (UniProt P04401)
# T1 sequence (whole entry): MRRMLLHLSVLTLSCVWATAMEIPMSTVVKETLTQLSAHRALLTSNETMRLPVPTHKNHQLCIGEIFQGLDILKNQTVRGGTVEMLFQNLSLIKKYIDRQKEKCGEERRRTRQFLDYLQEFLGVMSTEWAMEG
# Assay: Inhibition of IL-5 in mouse Y16 cells assessed as reduction in cell proliferation at 30 uM after 48 hrs by WST-1 assay relative to control
# Format: cell-based
row,SMILES,inhibition [%]
1,O=C1/C(=C/c2ccc(O)cc2)Cc2cccc(OCc3ccc([N+](=O)[O-])cc3)c21,32
2,COc1ccc(/C=C2\Cc3cccc(O)c3C2=O)cc1,25
3,O=C1c2c(cccc2OCCc2ccccc2)CC1Cc1ccc(O)cc1 (stereo unspecified),59
4,O=C1c2c(cccc2OCC2CCCCC2)CC1Cc1cccc(O)c1 (stereo unspecified),95
5,O=C1/C(=C/c2ccccc2)Cc2cccc(O)c21,40
6,O=c1c(Cc2ccc(O)cc2)coc2cccc(OCC3CCCCC3)c12,96
7,O=C1c2c(cccc2OCCc2ccccc2)CC1Cc1cccc(O)c1 (stereo unspecified),60.5
8,COc1ccc(CC2Cc3cccc(OCC4CCCCC4)c3C2=O)cc1 (stereo unspecified),44
9,O=C1c2c(cccc2OCC2CCCCC2)CC1Cc1ccc(O)cc1 (stereo unspecified),100
10,O=C1c2c(cccc2OCCc2ccccc2)CC1Cc1ccccc1O (stereo unspecified),47
11,O=C1c2c(cccc2OCCC2CCCCC2)CC1Cc1ccc(O)cc1 (stereo unspecified),78
12,COc1ccc(COc2cccc3c2C(=O)/C(=C/c2ccc(O)cc2)C3)cc1,0
13,O=C1/C(=C/c2ccc(O)cc2)Cc2cccc(O)c21,35
14,COc1ccc(/C=C2\Cc3cccc(OCC4CCCCC4)c3C2=O)cc1,5.6
15,O=C1c2c(cccc2OCC2CCCCC2)CC1Cc1ccc(Cl)cc1 (stereo unspecified),70
16,O=C1c2c(O)cccc2CC1Cc1ccc(O)cc1 (stereo unspecified),30
17,COc1ccc(/C=C2\Cc3cccc(OCc4ccc(OC)cc4)c3C2=O)cc1,6
18,COc1ccc(COc2cccc3c2C(=O)/C(=C/c2ccc(Cl)cc2)C3)cc1,29
19,COCOc1ccc(CC2Cc3cccc(OCC4CCCCC4)c3C2=O)cc1 (stereo unspecified),90
20,O=C1c2c(cccc2OCc2ccccc2)CC1Cc1ccc(O)cc1 (stereo unspecified),70
21,O=C1/C(=C/c2ccc(O)cc2)Cc2cccc(OCC3CCCCC3)c21,47
22,COCOc1ccc(/C=C2\Cc3cccc(OCC4CCCCC4)c3C2=O)cc1,23.5
23,COc1ccc(COc2cccc3c2C(=O)/C(=C/c2ccc(C)cc2)C3)cc1,17
24,COc1ccc(COc2cccc3c2C(=O)/C(=C/c2ccccc2)C3)cc1,5
25,Cc1ccc(CC2Cc3cccc(OCC4CCCCC4)c3C2=O)cc1 (stereo unspecified),68
26,O=C1c2c(cccc2OCC2CCCCC2)CC1Cc1ccccc1O (stereo unspecified),13
